In patent publication US11096906B2, “Pharmaceutical composition for preventing or treating Alzheimer's disease” (SFCBIO. CO., LTD., priority 2015, dated 2021):

What was measured:
Format in all cases: cell-based
sAPPβ protein = test: Amount of sAPPβ protein released from APPwt-CHO cells, by western blot; details: for reduction of the amount of sAPPβ protein as compared to the control group: APPwt-CHO cells
Method: (§1) In order to evaluate the ability of suppressing β-amyloid formation of Compounds 1-3, APPwt-CHO cells obtained by overexpressing APP in CHO cells were used and the amount of the sAPPβ protein cleaved by β-secretase and released out of the cells was measured by western blot. When the APP precursor protein is cleaved first by β-secretase, sAPPβ is released out of the cell. The protein remaining attached to the membrane is cleaved again by γ-secretase to produce β-amyloid. Accordingly, the amount of β-secretase and sAPPβ is proportional to the amount of the produced β-amyloid. Therefore, the amount of the two proteins was measured by western blot.

β-secretase = test: Amount of β-secretase protein in APPwt-CHO cells, by western blot; details: for reduction of the amount of β-secretase protein as compared to the control group: APPwt-CHO cells
Method: as §1

APP*t-CHO cells = test: MTT-based cytotoxicity assay
Method: The cytotoxicity of Compounds 1-3 separated and identified in Examples 1-5 was investigated by MTT-based cytotoxicity assay. APP*t-CHO cells treated with Compounds 1-3 were cultured for 24 hours. After adding a 5 mg/mL MTT solution, the cells were cultured for 4 hours. After removing the culture medium and lysing the cells for 30 minutes by adding DMSO, absorbance was measured at 540 nm using the Emax precision microplate reader (Molecular Devices, CA, USA).

[1] = 100 μg/mL, cells cultured 24 hours, MTT

| Compound | reduction of the amount of sAPPβ protein as compared to the control group (sAPPβ protein; 10 μg/mL) | reduction of the amount of sAPPβ protein as compared to the control group (sAPPβ protein; 20 μg/mL) | reduction of the amount of β-secretase protein as compared to the control group (β-secretase; 10 μg/mL) | reduction of the amount of β-secretase protein as compared to the control group (β-secretase; 20 μg/mL) | cytotoxicity (APP*t-CHO cells; [1]) | reduction of the amount of sAPPβ protein as compared to the control group (sAPPβ protein; 100 μg/mL) | reduction of the amount of β-secretase protein as compared to the control group (β-secretase; 100 μg/mL) | reduction of the amount of sAPPβ (in words) (sAPPβ protein; 20 μg/mL) | decrease of the amount of β-secretase (in words) (β-secretase) | cytotoxicity (APP*t-CHO cells; 20 μg/mL) | concentration at which toxicity was shown (APP*t-CHO cells; cells cultured 24 hours, MTT) |
| --- | --- | --- | --- | --- | --- | --- | --- | --- | --- | --- | --- |
| CCCC(=O)c1c(O)cc(O)cc1O [Compound 1, butyrylphloroglucinol] | about 20% | about 70% | about 10% | about 30% | no toxicity | – | – | – | – | – | – |
| CCC(=O)c1c(O)cc(O)c(C)c1O [Compound 2, 2-propionyl-4-methylphloroglucinol] | – | about 40% | – | about 40% | no toxicity | about 80% | about 60% | – | – | – | – |
| CCCC(=O)c1c(O)cc(O)c(C)c1O [Compound 3, 2-butyryl-4-methylphloroglucinol] | about 40% | about 80% | about 20% | about 30% | showed toxicity | – | – | almost perfectly | effectively decreased | no toxicity was observed | ≥ 30000 ng/mL |
